In patent publication US20120245137A1 (Zalicus Pharmaceuticals Ltd., priority 2009, published 2012):
Where two headings read alike, the source gives them in different places.

Assays:
Assay type in all cases: cell-based
[1] = molecular target: N-type calcium channel subunits (α1B, α2δ, and β3a) (Homo sapiens, UniProt Q00975); experiment: Block of Cav2.2 channel, whole cell voltage clamp, manual and PatchXpress; conditions: Table 5; table follows Assay Example 3 (whole cell voltage clamp / PatchXpress); assay not given
Description: Cells are grown either on poly-D-lysine coated coverglass (manual EP) or in TIS culture plates (PatchXpress). For the PatchExpress, cells are released from the flask using trypsin. In both cases, the […] solution is (in mM): 130 […], 10 EGTA, 10 HEPES, 2 MgCl2, 3 MgATP, pH 7.3 with CsOH.
Microelectrodes are fabricated from borosilicate glass and fire-polished. […] The reference electrode is a silver-silver chloride pellet. Voltages are not corrected for the liquid junction potential between the internal and external solutions and leak is subtracted using the P/n procedure. Solutions are applied to cells by bath perfusion via gravity. The experimental chamber volume is—0.2 mL. and the perfusion rate is 0.5-2 mL/min. Flow of suction through the chamber is maintained at all times. Measurement of current amplitudes is performed with […] software (HEKA Elektronik).
PatchXpress (Molecular Devices) is a 16-well whole-cell automated patch clamp device that operates asynchronously with fully integrated fluidics. […] Capacitance and series resistance compensation is automated. No correction for liquid junction potentials is employed. Leak is subtracted using the P/n procedure. Compounds are added to cells with a pipettor from a 96-well compound plate. Voltage protocols and the recording of membrane currents are performed using the PatchXpress software/hardware system. Current amplitudes are calculated with DataXpress software.
In both manual and automated patch clamp, cells are voltage clamped at […] or −90 m V and 50 ms pulses to +20 mV are applied every 15 sec (0.067 Hz). Compounds are added in escalating doses to measure % inhibition. Percent inhibition is calculated from the ratio of the curerent amplitude in the presence and absence of compound. When multiple doses are achieved per cell, IC50 values are calculated.

Human Cav 2.2 channels = Human Cav 2.2 channels (Homo sapiens, UniProt Q00975); experiment: Fluorescent assay for CaV2.2 channels using potassium depolarization (VIPR/FLIPR); conditions: FLIPR data; for CAv2.2 IC50 Ratio closed/inact.: ratio closed/inactivated IC50
Description: Human Cav 2.2 channels were stably expressed in HEK293 cells along with alpha2-delta and beta subunits of voltage-gated calcium channels. An inwardly rectifying potassium channel (Kir2.3) was also expressed in these cells to allow more precise control of the cell membrane potential by extracellular potassium concentration. At low bath potassium concentration, the membrane potential is relatively negative, and is depolarized as the bath potassium concentration is raised. In this way, the bath potassium concentration can be used to regulate the voltage-dependent conformations of the channels. […] After the incubation period, Cav2.2 channel opening is triggered by addition of higher concentration of potassium (70 mM final concentration) to further depolarize the cell. The degree of state-dependent block can be estimated from the inhibitory potency of compounds after incubation in different potassium concentrations.
Calcium influx through Cav 2.2 channels is determined using a calcium sensitive fluorescent dye in combination with a fluorescent plate reader. Fluorescent changes were measured with either a VIPR (Aurora Instruments) or FLIPR (Molecular Devices) plate reader.
1. Seed cells in Poly-D-Lysine Coated 96 or 384-well plate and keep in a 3rC-IO % C02 incubator overnight.
2. Remove media, wash cells with 0.2 mL (96-well plate) or 0.05 mL (384-well plate) Dulbecco's Phosphate Buffered Saline (D-PBS) with calcium & magnesium (Invitrogen; 14040).
3. Add 0.1 mL (96-well plate) or 0.05 mL (384-well plate) of 4˜M fluor-4 (Molecular Probes; F-14202) and 0.02% Pluronic acid (Molecular Probes; P-3(00) prepared in D-PBS with calcium & magnesium (Invitrogen; 14040) supplemented with 10 mM Glucose & 10 mM HepeslNaOH; pH 7.4.
4. Incubate in the dark at 25° C. for 60-70 min.
5. Remove dye, wash cells with 0.1 mL (96-well plate) or 0.06 mL (384-well plate) of 4, 12, 25, or 30 mM Potassium Pre-polarization Buffer (PPB).
6. Add 0.1 mL (96-well plate) or 0.03 mL (384-well plate) of 4, 12, 25, 30 mM PPB with or without test compound.
7. Incubate in the dark at 25° C. for 30 min
8. Read cell plate on VIPR instrument, Excitation=480 nm, Emission=535 nm.
9. With VIPR continuously reading, add 0.1 mL (96-well plate) or 0.03 mL (384-well plate) of Depolarization Buffer (DB), which is 2× the final assay concentration, to the cell plate.

CAv1.2 = CAv1.2 (Homo sapiens, UniProt Q13936); experiment: FLIPR data, CAv1.2 channel blocking (Table 6)
T-type calcium channel = T-type calcium channel (Homo sapiens, UniProt O95180); experiment: T-type channel blocking, FLIPR data (Table 6); conditions: for CAv3.2 IC50 Ratio closed/inact.: CAv3.2, ratio closed/inactivated IC50
Description: Another method, high-throughput spectrophotometric assay, utilizes loading of the cell lines with a fluorescent dye sensitive to intracellular calcium concentration and subsequent examination of the effects of compounds on the ability of depolarization by potassium chloride or other means to alter intracellular calcium levels.

[2] = closed state, read-out: CAv2.2 IC50 Closed
[3] = inactivated state, read-out: CAv2.2 IC50 Inact.
[4] = closed state, read-out: CAv1.2 IC50 Closed
[5] = inactivated state, read-out: CAv1.2 IC50 Inact.
[6] = CAv3.2, inactivated state, read-out: CAv3.2 IC50 Inact.
[7] = CAv3.2, closed state, read-out: CAv3.2 IC50 Closed

Sequence of Human Cav 2.2 channels (Q00975 whole entry): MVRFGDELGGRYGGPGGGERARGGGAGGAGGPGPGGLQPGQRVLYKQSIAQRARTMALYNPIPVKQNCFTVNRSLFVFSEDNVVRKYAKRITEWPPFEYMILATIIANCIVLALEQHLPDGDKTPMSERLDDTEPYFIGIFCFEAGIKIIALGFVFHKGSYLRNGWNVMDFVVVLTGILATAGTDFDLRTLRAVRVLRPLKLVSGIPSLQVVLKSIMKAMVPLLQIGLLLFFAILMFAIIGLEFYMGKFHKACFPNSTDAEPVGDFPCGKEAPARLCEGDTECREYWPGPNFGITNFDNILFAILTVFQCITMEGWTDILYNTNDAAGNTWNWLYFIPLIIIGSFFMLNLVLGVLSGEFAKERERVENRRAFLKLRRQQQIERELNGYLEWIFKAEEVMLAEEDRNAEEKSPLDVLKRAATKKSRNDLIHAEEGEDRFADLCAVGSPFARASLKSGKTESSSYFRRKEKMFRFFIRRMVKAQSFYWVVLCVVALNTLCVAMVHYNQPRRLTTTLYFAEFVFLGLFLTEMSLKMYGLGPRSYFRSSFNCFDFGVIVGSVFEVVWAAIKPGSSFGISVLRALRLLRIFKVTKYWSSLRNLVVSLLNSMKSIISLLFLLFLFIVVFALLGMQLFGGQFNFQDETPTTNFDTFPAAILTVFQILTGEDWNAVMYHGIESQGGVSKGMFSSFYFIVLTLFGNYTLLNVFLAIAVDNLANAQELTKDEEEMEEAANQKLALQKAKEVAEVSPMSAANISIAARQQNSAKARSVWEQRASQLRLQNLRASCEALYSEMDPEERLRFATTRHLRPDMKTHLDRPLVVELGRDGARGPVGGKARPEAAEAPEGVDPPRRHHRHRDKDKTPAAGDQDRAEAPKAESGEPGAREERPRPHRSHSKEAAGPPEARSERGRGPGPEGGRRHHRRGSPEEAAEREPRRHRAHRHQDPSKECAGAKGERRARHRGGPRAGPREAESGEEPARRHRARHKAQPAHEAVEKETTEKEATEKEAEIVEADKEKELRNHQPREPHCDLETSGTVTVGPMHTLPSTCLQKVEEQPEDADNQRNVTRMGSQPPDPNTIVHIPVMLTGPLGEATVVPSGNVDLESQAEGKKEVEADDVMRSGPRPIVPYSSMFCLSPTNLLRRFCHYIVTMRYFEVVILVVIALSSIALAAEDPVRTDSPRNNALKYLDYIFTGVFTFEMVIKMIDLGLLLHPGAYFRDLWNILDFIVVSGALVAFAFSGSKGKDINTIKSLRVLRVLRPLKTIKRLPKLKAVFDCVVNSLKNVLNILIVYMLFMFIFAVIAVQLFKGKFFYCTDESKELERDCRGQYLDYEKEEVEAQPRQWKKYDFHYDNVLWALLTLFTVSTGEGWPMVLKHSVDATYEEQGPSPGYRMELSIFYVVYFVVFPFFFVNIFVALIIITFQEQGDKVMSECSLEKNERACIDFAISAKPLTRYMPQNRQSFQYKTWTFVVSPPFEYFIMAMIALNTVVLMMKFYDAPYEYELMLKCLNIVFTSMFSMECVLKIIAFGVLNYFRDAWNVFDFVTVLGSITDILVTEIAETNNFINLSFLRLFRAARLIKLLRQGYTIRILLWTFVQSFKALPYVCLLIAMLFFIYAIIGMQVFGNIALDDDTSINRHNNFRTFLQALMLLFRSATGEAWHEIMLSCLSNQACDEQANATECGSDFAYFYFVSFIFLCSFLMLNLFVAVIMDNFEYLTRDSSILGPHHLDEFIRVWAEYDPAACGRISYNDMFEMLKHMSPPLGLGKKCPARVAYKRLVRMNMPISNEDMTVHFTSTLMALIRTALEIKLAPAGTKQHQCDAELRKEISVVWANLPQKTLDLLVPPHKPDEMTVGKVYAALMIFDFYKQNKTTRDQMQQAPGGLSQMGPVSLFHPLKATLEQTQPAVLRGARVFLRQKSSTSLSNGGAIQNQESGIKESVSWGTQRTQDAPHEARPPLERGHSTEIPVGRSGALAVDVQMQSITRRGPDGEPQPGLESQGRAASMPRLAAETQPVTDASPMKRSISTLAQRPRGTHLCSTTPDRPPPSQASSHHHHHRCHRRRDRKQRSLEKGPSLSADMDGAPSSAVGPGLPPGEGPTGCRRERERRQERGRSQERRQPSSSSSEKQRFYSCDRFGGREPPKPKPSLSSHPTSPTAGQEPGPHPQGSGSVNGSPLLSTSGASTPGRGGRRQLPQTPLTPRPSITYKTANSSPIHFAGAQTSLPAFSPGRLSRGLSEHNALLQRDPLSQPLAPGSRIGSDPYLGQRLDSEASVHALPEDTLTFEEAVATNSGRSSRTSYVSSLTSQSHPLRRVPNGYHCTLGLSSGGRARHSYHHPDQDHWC
Sequence of Human Cav 2.2 channels (P54289 25-1103 partner): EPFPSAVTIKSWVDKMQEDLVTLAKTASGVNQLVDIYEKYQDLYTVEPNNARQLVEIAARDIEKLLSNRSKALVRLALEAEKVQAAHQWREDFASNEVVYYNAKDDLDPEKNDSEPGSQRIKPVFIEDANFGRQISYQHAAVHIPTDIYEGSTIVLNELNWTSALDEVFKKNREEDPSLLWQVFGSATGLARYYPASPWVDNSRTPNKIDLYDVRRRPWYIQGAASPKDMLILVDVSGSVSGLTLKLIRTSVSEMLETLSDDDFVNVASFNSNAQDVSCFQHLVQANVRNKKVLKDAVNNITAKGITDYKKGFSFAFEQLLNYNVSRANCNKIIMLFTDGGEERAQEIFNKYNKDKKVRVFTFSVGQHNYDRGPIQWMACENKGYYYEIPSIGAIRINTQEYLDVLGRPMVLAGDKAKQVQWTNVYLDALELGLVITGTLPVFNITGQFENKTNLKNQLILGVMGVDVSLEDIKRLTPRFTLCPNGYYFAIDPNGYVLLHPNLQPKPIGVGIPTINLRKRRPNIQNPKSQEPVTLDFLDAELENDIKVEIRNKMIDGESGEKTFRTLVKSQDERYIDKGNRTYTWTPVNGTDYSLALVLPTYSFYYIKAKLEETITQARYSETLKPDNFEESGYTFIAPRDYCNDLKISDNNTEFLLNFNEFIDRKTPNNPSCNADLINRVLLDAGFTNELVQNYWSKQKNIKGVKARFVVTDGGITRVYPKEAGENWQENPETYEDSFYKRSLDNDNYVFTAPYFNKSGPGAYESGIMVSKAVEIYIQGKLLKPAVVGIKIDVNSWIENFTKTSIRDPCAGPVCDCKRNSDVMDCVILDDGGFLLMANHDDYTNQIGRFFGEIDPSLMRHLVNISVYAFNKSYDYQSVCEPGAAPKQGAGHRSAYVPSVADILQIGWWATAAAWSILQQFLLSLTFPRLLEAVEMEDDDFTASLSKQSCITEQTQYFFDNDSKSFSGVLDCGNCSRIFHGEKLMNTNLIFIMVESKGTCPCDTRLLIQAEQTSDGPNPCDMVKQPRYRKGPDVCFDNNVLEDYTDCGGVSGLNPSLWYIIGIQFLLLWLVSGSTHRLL
Sequence of Human Cav 2.2 channels (P54284 whole entry partner): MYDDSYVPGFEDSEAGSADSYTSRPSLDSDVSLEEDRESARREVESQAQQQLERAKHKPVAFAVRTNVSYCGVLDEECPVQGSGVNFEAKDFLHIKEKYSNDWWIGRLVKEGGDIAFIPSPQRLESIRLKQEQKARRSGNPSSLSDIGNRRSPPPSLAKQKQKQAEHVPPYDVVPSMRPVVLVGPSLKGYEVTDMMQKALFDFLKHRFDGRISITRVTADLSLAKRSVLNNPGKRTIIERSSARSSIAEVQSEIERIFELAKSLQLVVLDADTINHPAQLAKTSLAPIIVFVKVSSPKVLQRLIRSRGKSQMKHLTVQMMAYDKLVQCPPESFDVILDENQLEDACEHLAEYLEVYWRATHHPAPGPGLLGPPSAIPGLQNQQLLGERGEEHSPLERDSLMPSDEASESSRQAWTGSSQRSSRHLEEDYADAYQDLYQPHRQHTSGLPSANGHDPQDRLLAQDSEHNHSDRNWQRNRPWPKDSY
Sequence of N-type calcium channel subunits (α1B, α2δ, and β3a) (Q00975 whole entry): as the sequence (Q00975 whole entry) above
Sequence of N-type calcium channel subunits (α1B, α2δ, and β3a) (P54289 25-1103 partner): as the sequence (P54289 25-1103 partner) above
Sequence of N-type calcium channel subunits (α1B, α2δ, and β3a) (P54284 whole entry partner): as the sequence (P54284 whole entry partner) above

Row | Compound | IC50 [1] [nM] | IC50 (Human Cav 2.2 channels; [2]) [µM] | IC50 (Human Cav 2.2 channels; [3]) [µM] | CAv2.2 IC50 Ratio closed/inact. (Human Cav 2.2 channels) | IC50 (CAv1.2; [4]) [µM] | IC50 (CAv1.2; [5]) [µM] | IC50 (T-type calcium channel; [6]) [µM] | IC50 (T-type calcium channel; [7]) [µM] | CAv3.2 IC50 Ratio closed/inact. (T-type calcium channel) | CAv1.2 IC50 Ratio closed/inact. (CAv1.2; ratio closed/inactivated IC50)
1 | 2-(methylsulfonyl)-6-(trifluoromethyl)- N-(((1S,3S)-3- (3-(trifluoromethyl) phenylsulfonyl)cyclobutyl) methyl)nicotinamide [Compound 382] | 1710 | – | – | – | – | – | – | – | – | –
2 | 2-chloro-6-(trifluoromethyl)-N- ((1R,4R)-4-(3- (tritluoromethyl)phenylsulfonyl) cyclohexyl)nicotinamide [Compound 187] | 7000 | – | – | – | – | – | – | – | – | –
3 | 2-chloro-6-(trifluoromethyl)-N- ((1S,4S)-4-(3- (trifluoromethyl)phenylsulfonyl) cyclohexyl)nicotinamide [Compound 200] | 1020 | – | – | – | – | – | – | – | – | –
4 | 2-fluoro-N-((1R,4R)-4-(3- (trifluoromethyl)phenylsulfonyl) cyclohexyl)isonicotinamide [Compound 188] | 5610 | – | – | – | – | – | – | – | – | –
5 | 3-(methylsulfonyl)-5-(trifluoromethyl)- N-(((1S,3S)- 3-(3-(trifluoromethyl) phenylsulfonyl)cyclobutyl) methyl)picolinamide [Compound 388] | 1060 | – | – | – | – | – | – | – | – | –
6 | 4,5-dichloro-N-((1R,4R)-4-(3- (trifluoromethyl)phenylsulfonyl) cyclohexyl)isothiazole-3- carboxamide [Compound 183] | 1990 | – | – | – | – | – | – | – | – | –
7 | CNC1(CC(=O)N[C@H]2C[C@H](C(C)(C)S(=O)(=O)c3cc(F)cc(C(F)(F)F)c3)C2)CCCCC1 [Compound 659] | – | 9.71 | 1.93 | 5 | ≥ 10 | ≥ 10 | 10 | – | – | –
8 | CNC1(CC(=O)N[C@H]2C[C@@H](C(C)(C)S(=O)(=O)c3cccc(OC(F)(F)F)c3)C2)CCCCC1 [Compound 661] | – | 8.03 | 1.53 | 5.2 | ≥ 10 | ≥ 10 | 10 | – | – | –
9 | CNC1(CC(=O)N[C@H]2C[C@H](C(C)(C)S(=O)(=O)c3cccc(OC(F)(F)F)c3)C2)CCCCC1 [Compound 662] | – | 5.65 | 1.25 | 4.5 | ≥ 10 | ≥ 10 | 10 | – | – | –
10 | O=C(NC[C@H]1C[C@H](S(=O)(=O)c2cccc(OC(F)(F)F)c2)C1)c1ccnc(C(F)(F)F)n1 [Compound 697] | – | 3.78 | 0.71 | 5.3 | ≥ 10 | ≥ 10 | 8.91 | ≥ 10 | 1.1 | –
11 | O=C(NC[C@H]1C[C@H](S(=O)(=O)c2cccc(OC(F)(F)F)c2)C1)c1ccc(OCC(F)(F)F)nc1 [Compound 699] | – | 7.86 | – | 3.1 | ≥ 10 | – | – | ≥ 10 | 1 | –
12 | CS(=O)(=O)c1cc(C(F)(F)F)cnc1C(=O)NC[C@H]1C[C@H](S(=O)(=O)c2cc(F)cc(C(F)(F)F)c2)C1 [Compound 701] | – | 10 | 2.21 | 4.5 | – | ≥ 10 | 10 | – | – | –
13 | NC1(CC(=O)NC[C@H]2C[C@H](S(=O)(=O)c3cc(F)cc(C(F)(F)F)c3)C2)CCCCC1 [Compound 708] | – | 7.67 | 3.03 | 2.5 | ≥ 10 | ≥ 10 | 10 | – | – | –
14 | N[C@H]1CCCCC1C(=O)NC[C@H]1C[C@H](S(=O)(=O)c2cccc(OC(F)(F)F)c2)C1 (some centres unmarked) [Compound 709] | – | 7.5 | 2.34 | 3.2 | ≥ 10 | – | 10 | ≥ 10 | 1 | –
15 | N[C@H]1CCCC[C@@H]1C(=O)NC[C@H]1C[C@H](S(=O)(=O)c2cc(F)cc(C(F)(F)F)c2)C1 [Compound 712] | – | 10 | 6.02 | 1.7 | ≥ 10 | ≥ 10 | 10 | – | – | –
16 | N[C@@H]1CCCC[C@H]1C(=O)NC[C@H]1C[C@H](S(=O)(=O)c2cccc(OC(F)(F)F)c2)C1 [Compound 714] | – | 5.77 | 2.29 | 2.5 | ≥ 10 | – | 10 | ≥ 10 | 1 | –
17 | CS(=O)(=O)c1cc(Cl)ccc1C(=O)NC[C@H]1C[C@H](S(=O)(=O)c2cc(F)cc(C(F)(F)F)c2)C1 [Compound 715] | – | 10 | 1.38 | 7.2 | ≥ 10 | ≥ 10 | 7.51 | ≥ 10 | 1.3 | –
18 | CC(C)(C[C@H]1C[C@H](NC(=O)c2ncc(C(F)(F)F)cc2S(C)(=O)=O)C1)S(=O)(=O)c1cccc(C(F)(F)F)c1 [Compound 717] | – | 8.63 | 0.49 | 17.6 | ≥ 10 | ≥ 10 | 9.98 | ≥ 10 | 1 | –
19 | CC(C)(C[C@H]1C[C@H](NC(=O)CC2(N)CCCCC2)C1)S(=O)(=O)c1cccc(C(F)(F)F)c1 [Compound 726] | – | 2.77 | 0.9 | 3.1 | ≥ 10 | ≥ 10 | 10 | ≥ 10 | 1 | –
20 | CC(C)(C[C@H]1C[C@H](NC(=O)[C@@H]2CCCC[C@@H]2N)C1)S(=O)(=O)c1cccc(C(F)(F)F)c1 [Compound 727] | – | 4.1 | 0.95 | 4.3 | – | ≥ 10 | 10 | – | – | –
21 | CC(C)(C[C@H]1C[C@H](NC(=O)[C@@H]2CCCC[C@H]2N)C1)S(=O)(=O)c1cccc(C(F)(F)F)c1 [Compound 728] | – | 3.64 | 1.56 | 2.3 | ≥ 10 | – | 10 | – | – | –
22 | CC(C)(C[C@H]1C[C@@H](NC(=O)c2ncc(C(F)(F)F)cc2S(C)(=O)=O)C1)S(=O)(=O)c1cccc(C(F)(F)F)c1 [Compound 730] | – | 9.1 | 0.46 | 19.8 | ≥ 10 | ≥ 10 | 10 | ≥ 10 | 1 | –
23 | CC(C)(C[C@H]1C[C@@H](NC(=O)CC2(N)CCCCC2)C1)S(=O)(=O)c1cccc(C(F)(F)F)c1 [Compound 739] | – | 2.89 | 1 | 2.9 | 8.86 | ≥ 10 | 10 | ≥ 10 | 1 | 0.9
